Source: ChEMBL document CHEMBL3507680, “University of Dundee, Gates Library screen for HepG2 cell viability”

Test: Human HepG2 cell viability assay in 384 well format
Type: toxicity, cell-based
Set-up: dose 125 nL, time 70.5 hour; cytotoxicity at 70.5 h: concentration not given beside the values
Conditions: HepG2 cells, read-out: Inhibition
For `c1cncc(COCC2CN(Cc3ccco3)Cc3nccn3C2)c1` (stereo not drawn), the cytotoxicity at 70.5 h was -9.74%. `COCC1c2nnn(CC3CC3)c2CCN1C(=O)CS(C)(=O)=O` (stereo not drawn) showed a cytotoxicity at 70.5 h of -12.6%. `COCC1c2nnn(CC3CC3)c2CCN1C(=O)C1CCOCC1` (stereo not drawn) showed a cytotoxicity at 70.5 h of -11.4%. Molecule `COCC1c2nnn(CC3CC3)c2CCN1C(=O)c1cnccn1` (stereo not drawn) has a cytotoxicity at 70.5 h of -13%. Work on `COCC1c2nnn(CC3CC3)c2CCN1C(=O)c1cc(C)[nH]c1C` (stereo not drawn) yielded a cytotoxicity at 70.5 h of -9.95%. For `CS(=O)(=O)N1CCCC12CCCN(C(=O)c1cc(F)cc(F)c1)C2` (stereo not drawn), the cytotoxicity at 70.5 h was -11.7%. For `COCC1c2nnn(CC3CC3)c2CCN1C(=O)c1ccncn1` (stereo not drawn), the cytotoxicity at 70.5 h was 9.24%. `Cc1nc(C)n(CC2CN(S(C)(=O)=O)Cc3nccn3C2)n1` (stereo not drawn) showed a cytotoxicity at 70.5 h of 9.77%. With `CN(C)C(=O)c1cc2c(nc1NCC1CC1)CCNCC2` the cytotoxicity at 70.5 h was 29.7%. Molecule `Cc1cccc(C(=O)N2CCCn3cnc(CN4CCCC4=O)c3C2)n1` has a cytotoxicity at 70.5 h of 30.9%. `Cc1noc(C2CCC3(CCN(C(=O)c4sccc4C)CC3)O2)n1` (stereo not drawn) gave a cytotoxicity at 70.5 h of -4%. `O=C(c1cccnc1)N1CCOCC2(CCN(c3ncccn3)C2)C1` (stereo not drawn) showed a cytotoxicity at 70.5 h of -1.45%. Work on `CS(=O)(=O)N1CCc2ncc(CNC(=O)C3CCC3)n2CC1` yielded a cytotoxicity at 70.5 h of -1.87%. For `CC(C)CC(=O)N1CCCn2cnc(CNS(C)(=O)=O)c2C1`, the cytotoxicity at 70.5 h was 2.43%. `COCCN1CCC2(CC1)COc1ccccc1S(=O)(=O)N(C)C2` showed a cytotoxicity at 70.5 h of 2.33%. In the case of `Cc1noc(C2CCC3(CCN(C(=O)c4ccn(C)n4)CC3)O2)n1` (stereo not drawn), the cytotoxicity at 70.5 h is reported as 10.4%. Work on `CCOC[C@H]1CC[C@H]2[C@H](CCN2C(=O)c2cnccn2)O1` yielded a cytotoxicity at 70.5 h of -4.15%. `COC[C@H]1CC[C@H]2[C@H](CCN2C(=O)c2ccncc2F)O1` showed a cytotoxicity at 70.5 h of -0.359%. `CCOC[C@@H]1CC[C@H]2[C@H](CCN2C(=O)c2cnccn2)O1` gave a cytotoxicity at 70.5 h of 2.78%. For `CCC(=O)N1CCC2(COCc3cnc(NCc4ccco4)nc32)C1` (stereo not drawn), the cytotoxicity at 70.5 h was 0.523%. For `Cc1cccc(CN2C[C@@H]3CCCO[C@@H]3[C@H](Nc3ccccn3)C2)n1`, the cytotoxicity at 70.5 h was 1.63%. In the case of `CCn1ncc2c1C(COC)CN(Cc1cnn(C)c1)C2` (stereo not drawn), the cytotoxicity at 70.5 h is reported as 8.92%. Work on `Cc1cc(CN2C[C@@H]3COC[C@]3(COCC(=O)N(C)C)C2)no1` yielded a cytotoxicity at 70.5 h of -4.13%. With `Cn1cccc1C(=O)N1CCc2ccc(=O)n(C)c2CC1` the cytotoxicity at 70.5 h was -6.17%. `CC(C)CNC(=O)[C@H]1CCS(=O)(=O)[C@@H]2CN(Cc3cccnc3)C[C@H]12` showed a cytotoxicity at 70.5 h of -4.4%. `Cc1ccccc1N1CC2(CCN(c3nncs3)C2)CC1=O` (stereo not drawn) gave a cytotoxicity at 70.5 h of -1.13%. For `O=C(NCCN1CCC(c2cccs2)CC1)c1ccccc1C(F)(F)F`, the cytotoxicity at 70.5 h was 1.14%. Molecule `O=C(Nc1nc2c(s1)CN(S(=O)(=O)C1CC1)CC2)c1c(F)cccc1F` has a cytotoxicity at 70.5 h of 3.16%. `Cc1cccc(CS(=O)(=O)NCC(O)Cc2ccccc2)c1` (stereo not drawn) gave a cytotoxicity at 70.5 h of 0.192%. For `COc1ccccc1OCC(=O)NCC(O)(c1ccccc1)C1CC1` (stereo not drawn), the cytotoxicity at 70.5 h was -3.14%. With `CC(=O)N1CCC(Oc2ccc(Cl)cn2)CC1` the cytotoxicity at 70.5 h was 0.563%. With `CS(=O)(=O)N1CCC(Oc2cnccn2)CC1` the cytotoxicity at 70.5 h was -5.72%. `CN(C)CC1CSCCCN1C(=O)c1ccc(=O)[nH]c1` (stereo not drawn) gave a cytotoxicity at 70.5 h of 10.8%. `CN(C)CC1CSCCCN1C(=O)c1ccc(C(C)(C)C)cc1` (stereo not drawn) gave a cytotoxicity at 70.5 h of -0.949%. Molecule `COCCN(Cc1ccoc1)C(=O)c1c(F)cccc1Cl` has a cytotoxicity at 70.5 h of -0.424%. Work on `Cc1nsc(C(=O)N2CCc3ccccc3C2)n1` yielded a cytotoxicity at 70.5 h of 28.2%. `CC(C)(C)C(=O)NCCn1ccc(-c2ccncc2)n1` gave a cytotoxicity at 70.5 h of -4.99%. In the case of `Cn1cnnc1S(=O)(=O)C1CCN(S(=O)(=O)c2c(Cl)cccc2Cl)CC1`, the cytotoxicity at 70.5 h is reported as -8.23%. Molecule `CNC(=O)CS(=O)(=O)C1CCN(S(=O)(=O)C2CC2)CC1` has a cytotoxicity at 70.5 h of -3.01%. `CNC(=O)CS(=O)(=O)C1CCN(S(=O)(=O)c2ccccc2Br)CC1` gave a cytotoxicity at 70.5 h of -8.95%. In the case of `CC(C)CNc1nc(C(=O)/N=c2\[nH]nc(C(C)(C)C)s2)cs1`, the cytotoxicity at 70.5 h is reported as 4.48%. For `CC(C)n1[nH]c(=O)c2c1NC(=O)CC2c1cccnc1` (stereo not drawn), the cytotoxicity at 70.5 h was 9.01%. `CCOC(=O)N1CCN(C(=O)c2sc(-c3ccc(F)cc3)nc2C)CC1` showed a cytotoxicity at 70.5 h of -8.29%. With `Cc1nc(-c2ccccc2F)sc1C(=O)N1CCN(C)CC1` the cytotoxicity at 70.5 h was -10.6%. For `O=C(NCCc1ccccc1)C1CCCN(c2ccc3nncn3n2)C1` (stereo not drawn), the cytotoxicity at 70.5 h was -9.33%. Work on `CCCNC(=O)c1sc(Nc2ccc(Cl)cn2)nc1C` yielded a cytotoxicity at 70.5 h of -5%. For `COC(=O)Cn1cccc(S(=O)(=O)N2CCC(C)CC2)c1=O`, the cytotoxicity at 70.5 h was 41%. In the case of `CC1CCN(S(=O)(=O)c2cccn(CC(=O)N3CCOCC3)c2=O)CC1`, the cytotoxicity at 70.5 h is reported as -16%. Molecule `O=C(Cn1cc(C(=O)O)ccc1=O)NCc1ccc(F)c(Cl)c1` has a cytotoxicity at 70.5 h of -13.4%. In the case of `CC(C)(C)C(=O)Cn1nc(-c2ccccc2F)ccc1=O`, the cytotoxicity at 70.5 h is reported as -21.7%. Work on `O=C1CC(c2ccccc2)c2c(n3ccsc3nc2=O)N1` (stereo not drawn) yielded a cytotoxicity at 70.5 h of -20%. With `O=C1CC2(CCN(CCO)C2)CN1c1cccc(F)c1` (stereo not drawn) the cytotoxicity at 70.5 h was -10.9%. In the case of `Cc1ncsc1CN1C[C@@H](OCC(=O)N(C)C)[C@H]2OCCC[C@H]21`, the cytotoxicity at 70.5 h is reported as -11.1%. Molecule `Cc1ccc(C(=O)N2CCc3ncnc(-c4cnn(C)c4)c3CC2)cn1` has a cytotoxicity at 70.5 h of -2.36%. Work on `O=C(NCC1CC1)[C@@H]1CC[C@@H]2[C@@H](CCN2Cc2ccco2)O1` yielded a cytotoxicity at 70.5 h of 1.26%. For `CN(C)C(=O)N1CCC2(CC1)CCN(c1ncccn1)C2`, the cytotoxicity at 70.5 h was 2.39%. With `Cc1oncc1C(=O)N1CCc2ncnc(-c3cnn(C)c3)c2CC1` the cytotoxicity at 70.5 h was -1.31%. Molecule `CNC(=O)c1ccc2c(c1)C1(CCN(C(C)C)CC1)C(=O)N2` has a cytotoxicity at 70.5 h of 2.6%. `CN(C)C(=O)COC[C@]12COC[C@H]1CN(Cc1ccccc1)C2` showed a cytotoxicity at 70.5 h of -2.22%. `Cc1nc(CN2C[C@@H]3COC[C@]3(COCC(=O)N(C)C)C2)cs1` gave a cytotoxicity at 70.5 h of -5.31%. Molecule `CN(C)CCn1c2c(ccc1=O)CCN(C(=O)c1ccoc1)CC2` has a cytotoxicity at 70.5 h of -1.95%. `Cc1ccoc1C(=O)N1CCc2ccc(=O)n(CCN(C)C)c2CC1` showed a cytotoxicity at 70.5 h of -3.74%. Molecule `CNC(=O)CN1CC[C@H]2CN(C(=O)c3cccc(C)c3)C[C@H]2C1` has a cytotoxicity at 70.5 h of -2.46%. Molecule `COCCNC(=O)[C@H]1C[C@@H]2CCN(c3ncccn3)C[C@H]2O1` has a cytotoxicity at 70.5 h of -1.44%. In the case of `CC(C)CNC(=O)[C@H]1CCS(=O)(=O)[C@@H]2CN(CC(C)C)C[C@H]12`, the cytotoxicity at 70.5 h is reported as -1.81%. In the case of `COCCN1CCc2cc(C(=O)O)c(NCC3CC3)nc2CC1`, the cytotoxicity at 70.5 h is reported as 22.8%. `CN(C)CCOCC1CN(Cc2ccsc2)Cc2nnn(C)c21` (stereo not drawn) showed a cytotoxicity at 70.5 h of 30.5%. With `CN(C)CCOCC1CN(Cc2ccc(F)cc2)Cc2nnn(C)c21` (stereo not drawn) the cytotoxicity at 70.5 h was 2.45%. `O=C(NCCc1ccccn1)[C@@H]1CC[C@@H]2[C@@H](CCN2Cc2ccoc2)O1` gave a cytotoxicity at 70.5 h of 0.0992%. For `CCn1ncc2c1C(COC)CN(Cc1ccc(F)cc1)C2` (stereo not drawn), the cytotoxicity at 70.5 h was 2.06%. Work on `Cc1cccc(CN2C[C@@H]3COC[C@]3(COCC(=O)N(C)C)C2)n1` yielded a cytotoxicity at 70.5 h of -3.44%. `Cc1ncsc1CN1C[C@@H]2CCCO[C@@H]2[C@H](Nc2ccccn2)C1` gave a cytotoxicity at 70.5 h of -4.96%. In the case of `Cc1cccc(CN2CC3(CCN(Cc4ccco4)CC3)OCC2=O)n1`, the cytotoxicity at 70.5 h is reported as -3.31%. For `c1cncc(C2COC3(CCN(Cc4cccs4)CC3)C2)c1` (stereo not drawn), the cytotoxicity at 70.5 h was -6.54%. In the case of `COc1ccc(CN2CCC3(CC2)CC(c2cccnc2)CO3)cc1` (stereo not drawn), the cytotoxicity at 70.5 h is reported as -6.67%. `COCCn1cc2c(n1)C(CNCc1nccs1)OCC2` (stereo not drawn) showed a cytotoxicity at 70.5 h of -2.52%. In the case of `Cc1cccc(CN2CC3(CCN(C4CCOC4)CC3)OCC2=O)n1` (stereo not drawn), the cytotoxicity at 70.5 h is reported as 0.761%. Molecule `COCCO[C@H]1CCN(Cc2cccnc2)[C@H]1Cc1cccnc1` has a cytotoxicity at 70.5 h of 17.5%.
